Key:
Format in all cases: physicochemical
[1] = Light fastness of near infrared ray absorption filter (ΔEab before/after xenon lamp); conditions: filter 1.0 μm, 7.5 mass % compound; xenon lamp 50,000 lux for 20 hours; ΔEab class
Description: (§1) Compositions below were mixed so as to prepare the composition. A solid content of the composition is 31 mass % and a content of the near infrared ray absorption substance with respect to the total solid content of the composition was 7.5 mass %.
(§2) Glass substrates (1737 manufactured by Corning Incorporated) were coated with respective compositions by using a spin coater such that film thicknesses after drying become 1.0 μm, and a heating treatment (prebaking) was performed for 120 seconds by using a hot plate of 100° C.
(§3) Subsequently, beta exposure was performed by 500 mJ/cm^2 by using an i-ray stepper exposure device FPA-3000i5+ (manufactured by Canon Inc.). Subsequently, puddle development was performed at 23° C. for 60 seconds by using CD-2060 (manufactured by Fujifilm Electronic Materials), a rinse treatment was performed with pure water on a glass substrate on which a beta coloration layer was formed, and spray drying was performed.
(§4) The heating treatment (post baking) was performed for 300 seconds by using a hot plate of 200° C., so as to obtain a near infrared ray absorption filter.
After the near infrared ray absorption filter was irradiated with a xenon lamp was applied by 50,000 lux for 20 hours (corresponding to 1,000,000 lux·h), an ΔEab value of a color difference before and after a light-fast test was measured. A smaller ΔEab value indicates more satisfactory light fastness.
The ΔEab value is a value obtained from a color difference equation below according to a CIE 1976 (L*, a*, b*) space color system (Handbook of Color Science, New Edition, edited by the Color Science Association of Japan, (1985), p. 266). ΔEab={(ΔL*)^2[…](Δa*)^2+(Δb*)^2}^1/2

[2] = Evaluation of maximum absorption wavelength, half-width and absorbance ratio (liquid absorption spectrum); conditions: 2.5×10^−6 mol/L, optical path length 10 mm
[3] = Solubility of the compound to propylene glycol monomethyl ether acetate; conditions: visually observed
From the text: Solubility of the compound to propylene glycol monomethyl ether acetate was visually observed.

[4] = Evaluation of maximum absorption wavelength, half-width and absorbance ratio (liquid absorption spectrum); conditions: 2.5×10^−6 mol/L, optical path length 10 mm; remark: listed apart in the source
Description: —Evaluation of Maximum Absorption Wavelength, Half-Width, and Absorbance Ratio—Respective compounds were dissolved in measuring solvents (concentration: 2.5×10^−6 mol/L) described in the table below so as to measure an absorption spectrum (Optical path length: 10 mm).
Maximum absorption wavelengths (λmax) of absorption spectrums, half-widths of the maximum absorption wavelengths, and absorbance ratios (550 nm/λmax) which are values obtained by dividing absorbance at a wavelength of […] by absorbance at the maximum absorption wavelength with respect to respective compounds are presented in Table 1 below. FIG. 3 illustrates an absorption spectrum of the compound D-1 in chloroform.

[5] = Heat resistance of near infrared ray absorption filter (ΔEab before/after heating); conditions: filter 1.0 μm, 7.5 mass % compound; 260° C. for 30 minutes on hot plate; ΔEab class
Description: as §1, §2, §3, §4
After the near infrared ray absorption filter was heated to 260° C. for 30 minutes by a hot plate, the ΔEab value of a color difference before and after heat resistance test was measured using a color meter MCPD-1000 (manufactured by Otsuka Electronics Co., Ltd.), so as to evaluate a criterion below. A smaller ΔEab value indicates more satisfactory heat resistance.

[6] = measuring solvent ethyl acetate
[7] = measuring solvent tetrahydrofuran

Light fastness [1] | Absorbance ratio (550 nm/λmax) ([2]; measuring solvent chloroform) | Solubility [3] | Half-width ([4]; measuring solvent chloroform) | Maximum absorption wavelength ([4]; measuring solvent chloroform) | Heat resistance [5] | Absorbance ratio (550 nm/λmax) [2, 6] | Absorbance ratio (550 nm/λmax) [2, 7] | Half-width [4, 6] | Maximum absorption wavelength [4, 6] | Half-width [4, 7] | Maximum absorption wavelength [4, 7] | SMILES
5 (ΔEab value<3) | 0.01 | A (Solubility 2% or greater) | 28 nm | 884 nm | 5 (ΔEab value<3) |  |  |  |  |  |  | CCCCCCCCCCC(CCCCCCCC)COc1cccc(-c2c3/c(=C(\C#N)c4cnc5cc(Cl)c(Cl)cc5n4)n(B(c4ccccc4)c4ccccc4)c(-c4cccc(OCC(CCCCCCCC)CCCCCCCCCC)c4)c3/c(=C(\C#N)c3cnc4cc(Cl)c(Cl)cc4n3)n2B(c2ccccc2)c2ccccc2)c1 [Compound D-31]
5 (ΔEab value<3) | 0.003 | A (Solubility 2% or greater) | 30 nm | 748 nm | 5 (ΔEab value<3) |  |  |  |  |  |  | COc1ccc2oc(/C(C#N)=c3/c4c(-c5cccc(OCC(CCC(C)CC(C)(C)C)C(C)CC(C)(C)C)c5)n(B(c5ccccc5)c5ccccc5)/c(=C(/C#N)c5nc6cc(C)ccc6o5)c4c(-c4cccc(OCC(CCC(C)CC(C)(C)C)C(C)CC(C)(C)C)c4)n3B(c3ccccc3)c3ccccc3)nc2c1 [Compound D-43]
5 (ΔEab value<3) | 0.006 | A (Solubility 2% or greater) | 28 nm | 862 nm | 5 (ΔEab value<3) |  |  |  |  |  |  | CCCCCCCCCCC(CCCCCCCC)COc1cccc(-c2c3/c(=C(\C#N)c4cnc5ccccc5n4)n(B(c4ccccc4)c4ccccc4)c(-c4cccc(OCC(CCCCCCCC)CCCCCCCCCC)c4)c3/c(=C(\C#N)c3cnc4ccccc4n3)n2B(c2ccccc2)c2ccccc2)c1 [Compound D-29]
5 (ΔEab value<3) | 0.01 | A (Solubility 2% or greater) | 28 nm | 884 nm | 5 (ΔEab value<3) |  |  |  |  |  |  | CC(CCC(COc1cccc(-c2c3/c(=C(\C#N)c4cnc5cc(Cl)c(Cl)cc5n4)n(B(c4ccccc4)c4ccccc4)c(-c4cccc(OCC(CCC(C)CC(C)(C)C)C(C)CC(C)(C)C)c4)c3/c(=C(\C#N)c3cnc4cc(Cl)c(Cl)cc4n3)n2B(c2ccccc2)c2ccccc2)c1)C(C)CC(C)(C)C)CC(C)(C)C [Compound D-32]
5 (ΔEab value<3) | 0.019 | C (Solubility less than 0.5%) | 31 nm | 884 nm | 5 (ΔEab value<3) |  |  |  |  |  |  | CCCCCCCCC(CCCCCC)COc1ccc(-c2c3/c(=C(\C#N)c4cnc5cc(Cl)c(Cl)cc5n4)n(B(c4ccccc4)c4ccccc4)c(-c4ccc(OCC(CCCCCC)CCCCCCCC)cc4)c3/c(=C(\C#N)c3cnc4cc(Cl)c(Cl)cc4n3)n2B(c2ccccc2)c2ccccc2)cc1 (stereo not drawn) [Compound E-1, reference compound]
5 (ΔEab value<3) | 0.01 | A (Solubility 2% or greater) | 30 nm | 814 nm | 5 (ΔEab value<3) |  |  |  |  |  |  | CCCCC(CC)COc1cccc(-c2c3/c(=C(\C#N)c4ccc5ccccc5n4)n(B(c4ccccc4)c4ccccc4)c(-c4cccc(OCC(CC)CCCC)c4)c3/c(=C(\C#N)c3ccc4ccccc4n3)n2B(c2ccccc2)c2ccccc2)c1 [Compound D-10]
5 (ΔEab value<3) | 0.006 | A (Solubility 2% or greater) | 29 nm | 863 nm | 5 (ΔEab value<3) |  |  |  |  |  |  | CC(CCC(COc1cccc(-c2c3/c(=C(\C#N)c4cnc5ccccc5n4)n(B(c4ccccc4)c4ccccc4)c(-c4cccc(OCC(CCC(C)CC(C)(C)C)C(C)CC(C)(C)C)c4)c3/c(=C(\C#N)c3cnc4ccccc4n3)n2B(c2ccccc2)c2ccccc2)c1)C(C)CC(C)(C)C)CC(C)(C)C [Compound D-28]
5 (ΔEab value<3) | 0.011 | A (Solubility 2% or greater) | 29 nm | 884 nm | 5 (ΔEab value<3) | 0.011 | 0.01 | 30 nm | 880 nm | 29 nm | 884 nm | CCCCCCCCC(CCCCCC)COc1cccc(-c2c3/c(=C(\C#N)c4cnc5cc(Cl)c(Cl)cc5n4)n(B(c4ccccc4)c4ccccc4)c(-c4cccc(OCC(CCCCCC)CCCCCCCC)c4)c3/c(=C(\C#N)c3cnc4cc(Cl)c(Cl)cc4n3)n2B(c2ccccc2)c2ccccc2)c1 [Compound D-1]
5 (ΔEab value<3) | 0.01 | A (Solubility 2% or greater) | 31 nm | 866 nm | 5 (ΔEab value<3) |  |  |  |  |  |  | CCCCCCCCC(CCCCCCCC)COc1cccc(-c2c3/c(=C(\C#N)c4cnc5cc(C)ccc5n4)n(B(c4ccccc4)c4ccccc4)c(-c4cccc(OCC(CCCCCCCC)CCCCCCCC)c4)c3/c(=C(\C#N)c3cnc4cc(C)ccc4n3)n2B(c2ccccc2)c2ccccc2)c1 [Compound D-8]
5 (ΔEab value<3) | 0.01 | A (Solubility 2% or greater) | 32 nm | 872 nm | 5 (ΔEab value<3) |  |  |  |  |  |  | Cc1cc2ncc(/C(C#N)=c3/c4c(-c5cccc(OCC(CCC(C)CC(C)(C)C)C(C)CC(C)(C)C)c5)n(B(c5ccccc5)c5ccccc5)/c(=C(/C#N)c5cnc6cc(C)c(C)cc6n5)c4c(-c4cccc(OCC(CCC(C)CC(C)(C)C)C(C)CC(C)(C)C)c4)n3B(c3ccccc3)c3ccccc3)nc2cc1C [Compound D-6]
5 (ΔEab value<3) | 0.013 | A (Solubility 2% or greater) | 29 nm | 863 nm | 5 (ΔEab value<3) |  |  |  |  |  |  | CCC(C)COc1cccc(-c2c3/c(=C(\C#N)c4cnc5ccccc5n4)n(B(c4ccccc4)c4ccccc4)c(-c4cccc(OCC(C)CC)c4)c3/c(=C(\C#N)c3cnc4ccccc4n3)n2B(c2ccccc2)c2ccccc2)c1 [Compound D-7]

SMILES | Light fastness [1] | Absorbance ratio (550 nm/λmax) ([2]; measuring solvent chloroform) | Solubility [3] | Half-width ([4]; measuring solvent chloroform) | Maximum absorption wavelength ([4]; measuring solvent chloroform) | Heat resistance [5] | Absorbance ratio (550 nm/λmax) [2, 6] | Absorbance ratio (550 nm/λmax) [2, 7] | Half-width [4, 6] | Maximum absorption wavelength [4, 6] | Half-width [4, 7] | Maximum absorption wavelength [4, 7]
COCCOCCOc1cccc(-c2c3/c(=C(\C#N)c4cnc5cc(Cl)c(Cl)cc5n4)n(B(c4ccccc4)c4ccccc4)c(-c4cccc(OCCOCCOC)c4)c3/c(=C(\C#N)c3cnc4cc(Cl)c(Cl)cc4n3)n2B(c2ccccc2)c2ccccc2)c1 [Compound D-4] | 5 (ΔEab value<3) | 0.012 | B (Solubility 0.5% or greater and less than 2%) | 29 nm | 883 nm | 4 (3≤ΔEab value<5) |  |  |  |  |  | 
CCCCCCCCCCCCCCCCCCOc1cccc(-c2c3/c(=C(\C#N)c4nc5ccccc5s4)n(B(c4ccccc4)c4ccccc4)c(-c4cccc(OCCCCCCCCCCCCCCCCCC)c4)c3/c(=C(\C#N)c3nc4ccccc4s3)n2B(c2ccccc2)c2ccccc2)c1 [Compound D-11] | 5 (ΔEab value<3) | 0.009 | B (Solubility 0.5% or greater and less than 2%) | 30 nm | 779 nm | 5 (ΔEab value<3) |  |  |  |  |  | 
CCCCCCCC/C=C\CCCCCCCCOc1cccc(-c2c3/c(=C(\C#N)c4cnc5cc(Cl)c(Cl)cc5n4)n(B(c4ccccc4)c4ccccc4)c(-c4cccc(OCCCCCCCC/C=C\CCCCCCCC)c4)c3/c(=C(\C#N)c3cnc4cc(Cl)c(Cl)cc4n3)n2B(c2ccccc2)c2ccccc2)c1 [Compound D-5] | 5 (ΔEab value<3) | 0.01 | B (Solubility 0.5% or greater and less than 2%) | 29 nm | 884 nm | 5 (ΔEab value<3) |  |  |  |  |  | 

Reference: patent US10273251B2, “Composition, cured film, near infrared ray absorption filter, solid-state imaging device, infrared sensor, and compound” (FUJIFILM Corporation, priority 2014, dated 2019)
